Test results published in patent US4593090A, “Novel nitrosourea compounds, method for preparing same, and pharmaceutical composition containing same” (Gogo Kimura, priority 1981, dated 1986).
Read-outs that look alike come from different tables or passages of the source.

Columns and labels:
[1] = tested on: Leukemia L1210; experiment: Activity against Leukemia L1210, intraperitoneal, increase in life span of mice; format: in vivo, female mice (BDF1 family); details: for ED (maximum ILS) / ED30: Mus musculus, L1210, ip, ip once a day for 5 successive days; for ED (maximum ILS): daily dosage giving maximum increase of life span, read-out: O.D. (optimum dosage); for ED30: daily dosage increasing average survival days by 30%, read-out: ILS30; for Survivors after 60 days / Max. ILS % / Therapeutic ratio TR: ip; for Survivors after 60 days: 6-membered group; for Max. ILS %: 60-day observation, versus control; for Therapeutic ratio TR: O.D./ILS30
Summary of the method: (§1)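 Mice (female BDF1, 20–23 g) carrying 1×10^5 ip-implanted L1210 cells were given daily ip or oral doses for 5 days; ILS% came from mean survival over 60 days relative to controls.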

[2] = Acute toxicity (LD50, Behrens-Karber method); format: in vivo, ICR mice; details: mouse, in vivo, ip, mortality during 30 days
Experimental: Test compounds, dissolved or suspended in 0.5% aqueous CMC, were each intraperitoneally administered to ICR mice in a dose of 0.1 ml per 10 g body weight. LD50 (mg/kg) value of each test compound was calculated from the mortality of mice during 30 days by the Behrens-Karber method.

[3] = tested on: Leukemia L1210; experiment: Activity against Leukemia L1210, oral, increase in life span of mice; format: in vivo, female mice (BDF1 family); details: for ED (maximum ILS) / ED30: Mus musculus, L1210, oral once a day for 5 successive days; for ED (maximum ILS): daily dosage giving maximum increase of life span, read-out: O.D. (optimum dosage); for ED30: daily dosage increasing average survival days by 30%, read-out: ILS30; for Survivors after 60 days / Max. ILS % / Therapeutic ratio TR: oral; for Survivors after 60 days: 6-membered group; for Max. ILS %: 60-day observation, versus control; for Therapeutic ratio TR: O.D./ILS30
Summary of the method: as §1

[4] = tested on: Ehrlich acites carcinoma; experiment: Growth-inhibiting effect against Ehrlich acites carcinoma; format: in vivo, male mice; details: Mus musculus, Ehrlich, 120 h, 5 days; for response vs control in vivo at 25 mg/kg: 25 mg/kg/day ip; for response vs control in vivo at 100 mg/kg: 100 mg/kg/day ip
Summary of the method: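 Activity graded from T/C% of total packed ascites cell volume on day 7 (treated vs untreated): - 100-66, + 65-41, ++ 40-11, +++ 10-0. Groups of 6 male mice bore 1×10^7 i.p.-implanted cells and received compound (1% Nikkol HCO-60) i.p. daily for 5 days from 24 hrs after implantation.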

Structure (SMILES)	ED (maximum ILS) [1] [mg/kg]	ED30 [1] [mg/kg]	Survivors after 60 days [1]	Max. ILS % [1] [%]	Therapeutic ratio TR [1]	LD50 at 720 h [2] [mg/kg]	ED (maximum ILS) [3] [mg/kg]	ED30 [3] [mg/kg]	Survivors after 60 days [3]	Max. ILS % [3] [%]	Therapeutic ratio TR [3]	response vs control in vivo at 25 mg/kg ([4]; read-out: Activity) [%]	response vs control in vivo at 25 mg/kg ([4]; read-out: T/C %) [%]	response vs control in vivo at 100 mg/kg ([4]; read-out: Activity) [%]	response vs control in vivo at 100 mg/kg ([4]; read-out: T/C %) [%]
CC(C)CN(C[C@H]1O[C@H](OCC2CCCO2)[C@@H](O)[C@@H](O)[C@@H]1O)C(=O)N(CCCl)N=O (stereo partly drawn) [Compound 136, 3-(isobuty)-3-(tetrahydrofurfuryl α-D-mannopyranose-6-yl)-1-(2-chloroethyl)-1-nitrosourea]	200	2.94	6/6	> 700	68.0	600	240	10.1	5/6	> 625	23.8	0 to 10	0	0 to 10	0
CC(C)CO[C@H]1O[C@H](CN(CC2CCCO2)C(=O)N(CCCl)N=O)[C@@H](O)[C@@H](O)[C@@H]1O (stereo partly drawn) [Compound 140, 3-tetrahydrofurfuryl-3-(isobutyl α-D-altropyranose-6-yl)-1-(2-chloroethyl)-1-nitrosourea]	180	2.8	6/6	> 700	64.3	540	220	9.69	5/6	> 620	22.7	0 to 10	0	0 to 10	0
CCOCCN(C(=O)N(CCCl)N=O)[C@@H]1[C@@H](O)[C@@H](OC2CCCCC2)OC[C@H]1O [Compound 149, 3-(2-ethoxyethyl)-3-(cyclohexyl α-D-xylopyranose-3-yl)-1-(2-chloroethyl)-1-nitrosourea]	170	2.9	6/6	> 700	58.6	540	210	12.8	4/6	> 440	16.4	0 to 10	0	0 to 10	0
COCCCN(C[C@H]1O[C@H](OCC(C)C)[C@H](O)[C@H]1O)C(=O)N(CCCl)N=O [Compound 164, 3-(3-methoxy-n-propyl)-3-(isobutyl α-D-xylofuranose-5-yl)-1-(2-chloroethyl)-1-nitrosourea]	160	2.72	6/6	> 700	58.8	520	185	14.5	5/6	> 620	12.8	0 to 10	0	0 to 10	0
CC(C)CN(C[C@H]1O[C@@H](OCC2CCCO2)[C@H](O)[C@@H]1O)C(=O)N(CCCl)N=O (stereo partly drawn) [Compound 170, 3-isobutyl-3-(tetrahydrofurfuryl β-D-ribofuranose-5-yl)-1-(2-chloroethyl)-1-nitrosourea]	160	3	5/6	> 620	53.3	505	190	13.4	4/6	> 440	14.2	0 to 10	0	0 to 10	0
